Measurements reported in US7015228B2, “4-amino-2-(2-pyridyl)pyrimidines as microbicidal active substances” (Ciba Specialty Chemicals Corporation, priority 2001, dated 2006).
Converted amounts (≈) assume the structure as drawn.

Key:
[1] = test system: S. choleraesuis ATCC 10708; test: Determination of the bactericidal activity (logarithmic reduction in organism count); assay type: cell-based, Salmonella choleraesuis; conditions: contact for 30 minutes at a substance concentration of 120 μg/mL
Description: (§1) Determination of the Bactericidal Activity of Selected Compounds
(§2) Casein-soybean flour-peptone broth for preparation of pre-cultures of test bacteria
(§3) Examples of Test Organisms:
(§4) • Staphylococcus aureus ATCC 6538 • Escherichia coli ATCC 10536 • Salmonella choleraesuis ATCC 10708 Procedure:
(§5) The test substances are dissolved in dimethyl sulfoxide (DMSO) and tested in a concentration of 120 μg/ml.
(§6) Bacteria are incubated overnight in CASO broth and adjusted to an organism count of 1–5×10^5 CFU/ml using 0.85% sodium chloride solution.
(§7) The test substances are pre-pipetted into microtitre plates in amounts of 8 μl per well.
(§8) The adjusted test organism suspensions are added in amounts of 192 μl per well to the test substances and mixed. After defined contact times, the test batches are mixed, an aliquot is withdrawn and diluted in several steps in a dilution series of 1:10 in a suitable inactivation medium.
The test plates are incubated for 24 hours at 37° C. […]
(§9) One microtitre plate is used for each test organism.
(§10) All the substances are tested in duplicate.

S. aureus ATCC 6538 = test: as above; assay type: cell-based, Staphylococcus aureus; conditions: contact for 30 minutes at a substance concentration of 120 μg/mL
Description: as §1, §2, §3, §4, §5, §6, §7, §8
The test plates are incubated for 24 hours at 37° C.
(§11) After incubation, the growth is determined on the basis of the turbidity of the test batches (optical density) at 620 nm in a microplate reader.
as §9, §10

E. coli NCTC 8196 = test: as above; assay type: cell-based, Escherichia coli; conditions: contact for 30 minutes at a substance concentration of 120 μg/mL
[2] = test system: Escherichia coli NCTC 8196; test: Minimum inhibitory concentration (MIC) in microtitre plates; assay type: cell-based
Method in brief: (§12)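 Compounds in DMSO, 1:2 dilution series; bacteria at 1–5×10^6 CFU/ml diluted 1:100 in CASO broth. Incubation 48 h at 37° C, growth read as OD 620 nm. MIC is the lowest concentration giving ≤20% growth relative to control; duplicates.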

[3] = test system: Staphylococcus hominis DMS 20328; test: as above; assay type: cell-based; conditions: Table 7; 48 hours at 37° C.; MIC = ≦20% growth compared to control
Method in brief: as §12

[4] = test system: Staphylococcus aureus ATCC 9144; test: Minimum inhibitory concentration (MIC), further microorganisms; assay type: cell-based; conditions: Table 8; * = significant inhibition of growth, but not complete inhibition
Description: (§13) Determination of the Minimum Inhibitory Concentration (MIC Value) in Microtitre Plates
(§14) Casein-soybean flour-peptone broth for preparation of pre-cultures of test bacteria and yeast.
(§15) Mycological slant agar for the pre-culture of moulds
(§16) The test substances are pre-dissolved in dimethyl sulfoxide (DMSO) and tested in a dilution series of 1:2.
(§17) Bacteria and yeast are cultured overnight in CASO broth, the mould is cultured overnight on mycological slant agar, and washed off using 10 ml of 0.85% sodium chloride solution (+0.1% Triton X-100).
(§18) All the test organisms are adjusted to an organism count of 1–5×10^6 CFU/ml using 0.85% sodium chloride solution.
as §7
(§19) Pre-diluted organism suspensions are diluted 1:100 in CASO broth (bacteria and yeast) or Sabouraud 2% glucose broth (mould) and are added in amounts of 192 μl per well to the test substances.
(§20) The test batches are incubated for 48 hours at 37° C. (bacteria and yeast) or for 5 days at 28° C. (mould).
as §11
(§21) The minimum inhibitory concentration (MIC value) is the concentration of substance at which there is found (compared to the growth of the control) an appreciable inhibition of growth (≦20% growth) of the test organisms.
(§22) One microtitre plate is used for each test organism and substance concentration. All the substances are tested in duplicate.

[5] = test system: Candida albicans ATCC 10231; test: as above; assay type: cell-based; conditions: Table 8; * = significant inhibition of growth, but not complete inhibition
Description: as §13, §14, §15, §16, §17, §18, §7, §19, §20, §11, §21, §22

[6] = test system: Epidermophyton floccosum DSM 10709; test: as above; assay type: cell-based; conditions: Table 8; * = significant inhibition of growth, but not complete inhibition
Description: as §13, §14, §15, §16, §17, §18, §7, §19, §20, §11, §21, §22

[7] = test system: Klebsiella pneumonia ATCC 4352; test: as above; assay type: cell-based; conditions: Table 8; * = significant inhibition of growth, but not complete inhibition
Description: as §13, §14, §15, §16, §17, §18, §7, §19, §20, §11, §21, §22

[8] = test system: Trichophyton mentagrophytes ATCC 9533; test: as above; assay type: cell-based; conditions: Table 8; * = significant inhibition of growth, but not complete inhibition
Description: as §13, §14, §15, §16, §17, §18, §7, §19, §20, §11, §21, §22

[9] = test system: Aspergillus niger ATCC 6275; test: as above; assay type: cell-based; conditions: Table 8; * = significant inhibition of growth, but not complete inhibition
Description: as §13, §14, §15, §16, §17, §18, §7, §19, §20, §11, §21, §22

[10] = test system: Pseudomonas aeruginosa CIP A-22; test: as above; assay type: cell-based; conditions: Table 8
Description: as §13, §14, §15, §16, §17, §18, §7, §19, §20, §11, §21, §22

[11] = test system: Salmonella choleraesuis ATCC 10708; test: as above; assay type: cell-based; conditions: Table 8
Description: as §13, §14, §15, §16, §17, §18, §7, §19, §20, §11, §21, §22

[12] = test system: S. epidermidis ATCC 12228; test: as above; assay type: cell-based; conditions: Table 8; * = significant inhibition of growth, but not complete inhibition
Description: as §13, §14, §15, §16, §17, §18, §7, §19, §20, §11, §21, §22

[13] = test system: Enterococcus hirae ATCC 10541; test: as above; assay type: cell-based; conditions: Table 8; * = significant inhibition of growth, but not complete inhibition
Description: as §13, §14, §15, §16, §17, §18, §7, §19, §20, §11, §21, §22

[14] = test system: Micrococcus luteus ATCC 9341; test: as above; assay type: cell-based; conditions: Table 8; * = significant inhibition of growth, but not complete inhibition
Description: as §13, §14, §15, §16, §17, §18, §7, §19, §20, §11, §21, §22

Structure (SMILES)	Logarithmic reduction in organism count, S. choleraesuis ATCC 10708 [1]	Logarithmic reduction in organism count, S. aureus ATCC 6538 (S. aureus ATCC 6538)	Logarithmic reduction in organism count, E. coli NCTC 8196 (E. coli NCTC 8196)	also measured
CC(C)(C)c1cc(NCCCCCCCCCN)nc(-c2ccccn2)n1 [Compound of formula 54]	≦1 log	2–3 log	≦1 log	–
CCCCCCCCCNc1cc(C(C)(C)C)nc(-c2ccccn2)n1 [Compound of formula 58]	≦1 log	1 log	≦1 log	–
CCCCCCCCCCCCNc1cc(C(C)(C)C)nc(-c2ccccn2)n1 [Compound of formula 60]	<1 log	<1 log	<1 log	–
CC(C)(C)c1cc(NCCc2ccccc2)nc(-c2ccccn2)n1 [Compound of formula 63]	<1 log	<1 log	≦1 log	–
Cc1nc(-c2ccccn2)nc(NCCCCCCCCN)c1C(C)C [Compound of formula 65]	<1 log	3 log	<1 log	–
CCCCCCCNc1nc(-c2ccccn2)nc(C)c1C(C)C [Compound of formula 68]	<1 log	≦1 log	<1 log	–
CCCCCCCCNc1nc(-c2ccccn2)nc(C)c1C(C)C [Compound of formula 69]	≦1 log	1–2 log	<1 log	–
CCCCCCCCCNc1nc(-c2ccccn2)nc(C)c1C(C)C [Compound of formula 70]	<1 log	≦1 log	≦1 log	–
CCCCCCCCCCNc1nc(-c2ccccn2)nc(C)c1C(C)C [Compound of formula 71]	<1 log	2 log	<1 log	–
COCCc1cc(NCCCCCCCCN)nc(-c2ccccn2)n1 [Compound of formula 77]	<1 log	>3 log	<1 log	–
COCCc1cc(NCCCCCCCCCN)nc(-c2ccccn2)n1 [Compound of formula 78]	<1 log	>3 log	≦1 log	–
CCCCCCCCCCNc1cc(CCOC)nc(-c2ccccn2)n1 [Compound of formula 83]	<1 log	2 log	≦1 log	–
CCCCCCCCCCCNc1nc(-c2ccccn2)nc(C)c1CC [Compound of formula 89]	≦1 log	2 log	≦1 log	–
CCCCCCCCCCCCCCCNc1nc(-c2ccccn2)nc(C)c1CC [Compound of formula 90]	<1 log	2 log	<1 log	–
CCCCCCCCCCCNc1cc(C)nc(-c2ccccn2)n1 [Compound of formula 92]	≦1 log	>3 log	<1 log	–
CCCCCCCCCCCCCCCNc1cc(C)nc(-c2ccccn2)n1 [Compound of formula 93]	<1 log	2 log	≦1 log	–
CCCCCCCCCCCNc1cc(C(C)C)nc(-c2ccccn2)n1 [Compound of formula 98]	2–3 log	1 log	1–2 log	–
CCCCCCCCCCCCCCCNc1cc(C(C)C)nc(-c2ccccn2)n1 [Compound of formula 99]	<1 log	2 log	≦1 log	–
CCc1c(C)nc(-c2ccccn2)nc1NCCCCCCCCCCCCN [compound 7]	–	–	–	Minimum inhibitory concentration (MIC) E. coli ([2]; Table 7, 48 hours at 37° C., MIC = ≦20% growth compared to control): 120 µg/mL (≈ 302 µM); Minimum inhibitory concentration (MIC) E. coli NCTC 8196 ([2]; Table 8, * = significant inhibition of growth, but not complete inhibition): >60 µg/mL; Minimum inhibitory concentration (MIC) S. hominis [3]: 120 µg/mL (≈ 302 µM); Minimum inhibitory concentration (MIC) Staphylococcus aureus ATCC 9144 [4]: >60 µg/mL; Minimum inhibitory concentration (MIC) Candida albicans ATCC 10231 [5]: >60 µg/mL; Minimum inhibitory concentration (MIC) Epidermophyton floccosum DSM 10709 [6]: >30 µg/mL; Minimum inhibitory concentration (MIC) Klebsiella pneumonia ATCC 4352 [7]: >60 µg/mL; Minimum inhibitory concentration (MIC) Trichophyton mentagrophytes ATCC 9533 [8]: >30 µg/mL; Minimum inhibitory concentration (MIC) Aspergillus niger ATCC 6275 [9]: >30 µg/mL; Minimum inhibitory concentration (MIC) Pseudomonas aeruginosa CIP A-22 [10]: >60 µg/mL; Minimum inhibitory concentration (MIC) Salmonella choleraesuis ATCC 10708 [11]: >60 µg/mL; Minimum inhibitory concentration (MIC) S. epidermidis ATCC 12228 [12]: >60 µg/mL; Minimum inhibitory concentration (MIC) Enterococcus hirae ATCC 10541 [13]: >60 µg/mL; Minimum inhibitory concentration (MIC) Micrococcus luteus ATCC 9341 [14]: >60 µg/mL
